One molecule from ChEMBL document CHEMBL5512640, “Discovery of novel itaconimide-based derivatives as potent HDAC inhibitors for the efficient treatment of prostate cancer” (Eur J Med Chem, 2024) can be followed below.

Bounds are passed on as bounds.

The target of one series is Histone deacetylase 2 (Homo sapiens, UniProt Q92769). In words: Inhibition of human HDAC2 incubated for 10 mins followed by fluorogenic substrate addition by fluorescence based analysis.
The test system of series [1] is DU-145. Nature of the series: Inhibition of colony formation in human DU-145 cells assessed as suppression of colony formation measured after 2 weeks by crystal violet staining based analysis. The format is functional, cell-based. The note with it: dose 0.4-3.2 µM.
Series [2] concerns DU-145. Nature of the series: Induction of apoptosis in human DU-145 cells measured after 72 hrs by annexin V-FITC and PI staining based flow cytometry analysis. The format is functional, cell-based. To be noted: dose 0.4-1.6 µM.
The next series concerns HCT-116. In words: Antiproliferative activity against human HCT-116 cells incubated for 96 hrs by MTT assay. The format is functional, cell-based. To be noted: HCT-116, 96 h. For orientation: Formazan colour is commonly taken as a measure of viable cells.
For series [3], the target named is Polyamine deacetylase HDAC10 (Homo sapiens, UniProt Q969S8). Nature of the series: Inhibition of human HDAC10 incubated for 10 mins followed by fluorogenic substrate addition by fluorescence based analysis.
Another series has as its target Histone deacetylase 9 (Homo sapiens, UniProt Q9UKV0). Nature of the series: Inhibition of human HDAC9 incubated for 10 mins followed by fluorogenic substrate addition by fluorescence based analysis.
A further series relates to MDA-MB-231. Nature of the series: Antiproliferative activity against human MDA-MB-231 cells incubated for 96 hrs by MTT assay. The note with it: MDA-MB-231, 96 h. The format is functional, cell-based.
Series [4] in a line: Acute toxicity in Sprague-Dawley rat assessed as effect on kidney at 500 to 4500 mg/kg, po measured after 15 days. The format is organism-based. The note with it: in vivo, 360 h, dose 500-4500 mg/kg, time 15 day.
A short description of series [5]: Acute toxicity in female Sprague-Dawley rat assessed as effect on body weight at 500 to 4500 mg/kg, po measured every 3 days for 15 days. To be noted: in vivo, 360 h, dose 500-4500 mg/kg, time 15 day. The format is organism-based.
The target of the next series is Histone deacetylase 8 (Homo sapiens, UniProt Q9BY41). Nature of the series: Inhibition of human HDAC8 incubated for 10 mins followed by fluorogenic substrate addition by fluorescence based analysis.
The nature of series [6]: Oral bioavailability in Sprague-Dawley rat at 10 mg/kg measured upto 24 hrs by LC-MS/MS analysis. To be noted: in vivo. The format is ADME, organism-based.
The test system of series [7] is DU-145. Nature of the series: Antitumor activity against human DU-145 cells xenografted in Balb/c nude mouse model assessed as tumor growth inhibition at high dose administered as po once daily for 40 days relative to control. The note with it: time 40 day. The format is functional. A general note: In xenograft studies the graft and the host belong to different species.

Series [8] is described as follows: Acute toxicity in Sprague-Dawley rat assessed as effect on heart at 500 to 4500 mg/kg, po measured after 15 days. The format is organism-based. The note with it: in vivo, 360 h, dose 500-4500 mg/kg, time 15 day.
Another series relates to HT-29. Nature of the series: Antiproliferative activity against human HT-29 cells incubated for 96 hrs by MTT assay. The format is functional, cell-based. The note with it: HT-29, 96 h.

One may read the IC50 as the point on the concentration scale where inhibition reaches its midpoint. By bioavailability is commonly meant the share of a dose that reaches the circulation, judged against a reference dose that is usually intravenous. Higher therefore signals much systemic uptake. In general, TGI refers to how far tumour growth fell short of that in controls.

Sequence of Histone deacetylase 8 (Q9BY41 whole entry): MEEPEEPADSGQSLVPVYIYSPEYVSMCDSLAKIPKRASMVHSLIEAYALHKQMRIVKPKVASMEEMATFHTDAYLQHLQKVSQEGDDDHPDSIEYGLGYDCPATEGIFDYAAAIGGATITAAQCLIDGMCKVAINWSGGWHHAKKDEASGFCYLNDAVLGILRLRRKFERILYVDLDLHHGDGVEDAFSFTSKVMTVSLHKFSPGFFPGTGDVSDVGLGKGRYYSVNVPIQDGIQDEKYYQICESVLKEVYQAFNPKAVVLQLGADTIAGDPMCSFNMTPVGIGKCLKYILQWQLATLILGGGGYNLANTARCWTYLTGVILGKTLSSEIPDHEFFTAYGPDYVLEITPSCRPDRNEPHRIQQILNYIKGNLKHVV
Sequence of Histone deacetylase 2 (Q92769 whole entry): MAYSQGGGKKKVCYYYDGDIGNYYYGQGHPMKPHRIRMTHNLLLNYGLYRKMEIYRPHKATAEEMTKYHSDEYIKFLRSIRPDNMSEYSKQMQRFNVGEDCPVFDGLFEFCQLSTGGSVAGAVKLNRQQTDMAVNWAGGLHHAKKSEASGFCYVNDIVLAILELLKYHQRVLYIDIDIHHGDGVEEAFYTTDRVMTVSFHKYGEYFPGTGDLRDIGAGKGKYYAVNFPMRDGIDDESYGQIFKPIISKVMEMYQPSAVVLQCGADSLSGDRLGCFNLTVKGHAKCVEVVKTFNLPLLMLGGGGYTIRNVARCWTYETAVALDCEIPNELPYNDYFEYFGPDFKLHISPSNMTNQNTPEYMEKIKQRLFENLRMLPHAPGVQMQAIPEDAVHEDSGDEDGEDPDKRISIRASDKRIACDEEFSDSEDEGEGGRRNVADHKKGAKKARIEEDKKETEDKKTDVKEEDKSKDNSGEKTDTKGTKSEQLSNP
Sequence of Histone deacetylase 9 (Q9UKV0 whole entry): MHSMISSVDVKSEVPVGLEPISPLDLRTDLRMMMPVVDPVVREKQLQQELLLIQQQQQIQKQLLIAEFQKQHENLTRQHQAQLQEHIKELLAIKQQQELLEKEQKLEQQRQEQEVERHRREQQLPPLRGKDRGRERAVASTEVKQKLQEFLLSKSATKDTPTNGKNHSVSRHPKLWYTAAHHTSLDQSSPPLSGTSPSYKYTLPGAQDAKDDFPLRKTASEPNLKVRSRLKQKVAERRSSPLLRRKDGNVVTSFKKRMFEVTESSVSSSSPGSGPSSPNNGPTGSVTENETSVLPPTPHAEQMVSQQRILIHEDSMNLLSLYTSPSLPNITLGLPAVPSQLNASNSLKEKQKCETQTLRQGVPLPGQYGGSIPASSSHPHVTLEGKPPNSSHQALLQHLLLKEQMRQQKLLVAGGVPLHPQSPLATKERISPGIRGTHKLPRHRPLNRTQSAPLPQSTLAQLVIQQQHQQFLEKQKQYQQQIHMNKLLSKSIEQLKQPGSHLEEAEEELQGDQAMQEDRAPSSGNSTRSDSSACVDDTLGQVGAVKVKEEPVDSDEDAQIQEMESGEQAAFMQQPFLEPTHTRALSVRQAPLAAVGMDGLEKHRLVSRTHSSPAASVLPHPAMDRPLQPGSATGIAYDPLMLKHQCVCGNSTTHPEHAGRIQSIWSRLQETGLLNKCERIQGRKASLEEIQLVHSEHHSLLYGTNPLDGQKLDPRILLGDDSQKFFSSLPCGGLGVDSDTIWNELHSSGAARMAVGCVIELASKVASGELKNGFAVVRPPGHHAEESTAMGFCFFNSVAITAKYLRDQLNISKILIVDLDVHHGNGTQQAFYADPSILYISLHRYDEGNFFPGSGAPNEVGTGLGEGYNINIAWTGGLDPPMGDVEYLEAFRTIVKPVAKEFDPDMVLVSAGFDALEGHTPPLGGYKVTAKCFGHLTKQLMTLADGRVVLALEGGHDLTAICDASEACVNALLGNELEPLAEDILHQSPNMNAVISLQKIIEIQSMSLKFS
Sequence of Polyamine deacetylase HDAC10 (Q969S8 whole entry): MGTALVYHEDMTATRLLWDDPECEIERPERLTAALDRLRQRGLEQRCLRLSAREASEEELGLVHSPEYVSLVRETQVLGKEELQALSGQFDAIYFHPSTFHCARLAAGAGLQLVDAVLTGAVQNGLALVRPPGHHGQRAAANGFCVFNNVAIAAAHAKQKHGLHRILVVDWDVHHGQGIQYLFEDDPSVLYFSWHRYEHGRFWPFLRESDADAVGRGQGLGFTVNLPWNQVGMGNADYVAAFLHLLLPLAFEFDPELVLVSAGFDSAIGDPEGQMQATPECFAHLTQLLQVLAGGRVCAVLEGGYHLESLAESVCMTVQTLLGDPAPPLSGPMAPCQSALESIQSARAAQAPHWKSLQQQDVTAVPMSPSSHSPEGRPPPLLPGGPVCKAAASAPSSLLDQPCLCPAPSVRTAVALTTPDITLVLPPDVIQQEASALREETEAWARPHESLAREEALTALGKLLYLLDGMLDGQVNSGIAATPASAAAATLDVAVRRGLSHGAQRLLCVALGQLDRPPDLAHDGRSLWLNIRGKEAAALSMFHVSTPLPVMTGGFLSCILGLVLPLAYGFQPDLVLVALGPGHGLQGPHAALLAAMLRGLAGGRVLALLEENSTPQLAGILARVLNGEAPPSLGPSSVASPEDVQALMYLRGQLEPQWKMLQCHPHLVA

On to `COc1ccccc1/C=C1\CC(=O)N(CCCCCCC(=O)NO)C1=O`, for which the IC50 at Histone deacetylase 2 was 14.1 nM; with HCT-116 it was 470 nM; in series [3], 72 nM; against Histone deacetylase 9, above 5000 nM; with MDA-MB-231 it was 310 nM; against Histone deacetylase 8, 566 nM. The same molecule returned an IC50 in the series on HT-29 of 1050 nM. The inhibition result in the series on DU-145 [1] was “Dose-Dependent Effect”. Besides, the Activity result in the series on DU-145 [2] was “Dose-Dependent Effect”; in series [4], “Non-Toxic”; in series [5], “Non-Toxic”; in [8] it was “Non-Toxic”. The same molecule registered a bioavailability in series [6] of 46.5%. Further, the TGI in the series with DU-145 [7] stood at 68%.
